Like-named read-outs stand apart in the source and are kept apart here.
Target: T1, human CCR7 (Homo sapiens, UniProt P32248)
T1 construct: expressed in transfected cells
T1 sequence (P32248 25-378): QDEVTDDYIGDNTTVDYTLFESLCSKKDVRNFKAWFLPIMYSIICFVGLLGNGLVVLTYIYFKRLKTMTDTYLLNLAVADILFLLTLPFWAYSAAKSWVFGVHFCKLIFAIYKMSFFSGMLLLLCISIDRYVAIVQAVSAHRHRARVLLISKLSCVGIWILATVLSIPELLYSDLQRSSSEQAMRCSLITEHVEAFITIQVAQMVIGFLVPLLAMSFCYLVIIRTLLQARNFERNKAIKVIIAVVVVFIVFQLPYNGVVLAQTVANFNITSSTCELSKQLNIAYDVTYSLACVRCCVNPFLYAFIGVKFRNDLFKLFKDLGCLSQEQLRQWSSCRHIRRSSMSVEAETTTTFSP
Assay: CCL19-induced calcium mobilization assay, U87.CD4 cells expressing CCR7
Format: cell-based
Details: for IC50: read-out: IC50 [μM] block CCL19 induced calcium signaling
Outline: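 U87.CD4 cells stably expressing human CCR7, CXCR2 or CCR5 were seeded at 20,000 cells/well and incubated overnight at 37°C and 5% CO2. Cells were then incubated for 45 min at room temperature in the dark before calcium responses were recorded. CCR7 responses were induced with CCL19 and CXCR2 responses with CXCL8.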

[1] = CCL19 induced calcium signaling
[2] = classification as decoy or active on CCR7
[3] = CCL19-induced calcium signaling
[4] = classification of tested compounds as decoy or active

Compound | IC50 [1] [µM] | Decoy – 0 Active – 1 [2] | IC50 [3] [µM] | Decoy – 0 Active – 1 [4]
O=c1oc2ccccc2n1CCCN1CCCC1c1ccc(O)cc1 (stereo not drawn) [C189, O=c1oc2ccccc2n1CCC[NH+]1CCCC1c1ccc(O)cc1] | > 50 | 0 |  | 
COc1ccc2ccccc2c1CNc1c(N2CCSCC2)c(=O)c1=O [C004, COc1ccc2ccccc2c1CNc1c(N2CCSCC2)c(=O)c1=O] |  |  | > 50 | 0
COc1cccc(N(CC(=O)Nc2cccc([N+](=O)[O-])c2)S(=O)(=O)c2ccc(C)cc2)c1 [C255, Cc1ccc(cc1)S(=O)(=O)N(CC(=O)Nc2cccc(c2)[N+](=O)[O-])c3cccc(c3)OC] | > 50 | 0 |  | 
COc1c(Nc2cc(C(F)(F)F)cc(C(F)(F)F)c2)c(=O)c1=O [C025, O=C1C(OC)=C(NC2=CC(C(F)(F)F)=CC(C(F)(F)F)=C2)C1=O] |  |  | > 30 | 0
O=c1c(Nc2cc(C(F)(F)F)cc(C(F)(F)F)c2)c(Nc2cc(C(F)(F)F)cc(C(F)(F)F)c2)c1=O [C018, O=C1C(NC2=CC(C(F)(F)F)=CC(C(F)(F)F)=C2)=C(NC3=CC(C(F)(F)F)=CC(C(F)(F)F)=C3)C1=O] |  |  | > 50 | 0
Cc1ccc(NCC(=O)NCc2ccco2)cc1C(=O)N(C)C [C057, Cc1ccc(NCC(=O)NCc2ccco2)cc1C(=O)N(C)C] |  |  | > 10 | 0
CN(C)C1(CNc2c(N3CCN(Cc4ccccc4Cl)CC3)c(=O)c2=O)CCCC1 [C015, C[NH+](C)C1(CNc2c(N3CC[NH+](Cc4ccccc4Cl)CC3)c(=O)c2=O)CCCC1] |  |  | > 50 | 0
CN1CCN(CCC2CCCCN2Cc2nc3ccccc3[nH]2)CC1 (stereo not drawn) [C275, CN1CCN(CCC2CCCCN2Cc2nc3ccccc3[nH]2)CC1] | > 50 | 0 |  | 
O=c1c(NCc2cc(C(F)(F)F)cc(C(F)(F)F)c2)c(NCc2cc(C(F)(F)F)cc(C(F)(F)F)c2)c1=O [C017, O=C1C(NCC2=CC(C(F)(F)F)=CC(C(F)(F)F)=C2)=C(NCC3=CC(C(F)(F)F)=CC(C(F)(F)F)=C3)C1=O] |  |  | > 50 | 0
O=C(CNc1c(NCc2ccc3c(c2)OCO3)c(=O)c1=O)N1CCCC1 [C010, O=C(CNc1c(NCc2ccc3c(c2)OCO3)c(=O)c1=O)N1CCCC1] |  |  | > 50 | 0
CCOC(=O)NC(=S)Nc1cc(C)nc(C)n1 [C046, CC1=NC(NC(NC(OCC)=O)=S)=CC(C)=N1] |  |  | > 30 | 0
COc1c[nH]c(C(=O)NC(c2cccnc2)C(F)(F)F)cc1=O (stereo not drawn) [C213, COc1c[nH]c(C(=O)NC(c2cccnc2)C(F)(F)F)cc1=O] | > 50 | 0 |  | 
O=c1c(Nc2cc(C(F)(F)F)cc(C(F)(F)F)c2)c(N[C@H]2CCCC[C@@H]2N2CCCCC2)c1=O [C023, O=C1C(N[C@H]2CCCC[C@@H]2N3CCCCC3)=C(NC4=CC(C(F)(F)F)=CC(C(F)(F)F)=C4)C1=O] |  |  | > 50 | 0
Cc1ccc(NC=C2C(=O)CC(c3ccco3)CC2=O)cc1 (stereo not drawn) [C071, Cc1ccc(NC=C2C(=O)CC(c3ccco3)CC2=O)cc1] |  |  | > 10 | 0
CC1(O)CN(C(=O)c2cc3c(Br)cccc3[nH]2)C1 [C175, CC1(O)CN(C(=O)c2cc3c(Br)cccc3[nH]2)C1] | > 50 | 0 |  | 
CN(C)S(=O)(=O)c1ccc(-c2nnc(C(=O)NCc3ccccn3)o2)cc1 [C085, CN(C)S(=O)(=O)c1ccc(-c2nnc(C(=O)NCc3ccccn3)o2)cc1] |  |  | > 50 | 0
Cc1cc(NCC(=O)N(C)Cc2ccco2)ccc1C(=O)N(C)C [C060, Cc1cc(NCC(=O)N(C)Cc2ccco2)ccc1C(=O)N(C)C] |  |  | > 10 | 0
Cc1ccc(C(NC(=O)Nc2ccc(C(N)=O)c(Cl)c2)C(C)(C)C)o1 (stereo not drawn) [C056, Cc1ccc(C(NC(=O)Nc2ccc(C(N)=O)c(Cl)c2)C(C)(C)C)o1] |  |  | > 10 | 0
CN(C)C(=O)c1cccc(NCC(=O)N(C)C2CCCCC2)c1 [C075, CN(C)C(=O)c1cccc(NCC(=O)N(C)C2CCCCC2)c1] |  |  | > 10 | 0
CCCNC(=O)CNc1ccc(C)c(C(=O)N(C)C)c1 [C066, CCCNC(=O)CNc1ccc(C)c(C(=O)N(C)C)c1] |  |  | > 10 | 0
CCc1cccc(NC(=S)NNC(=O)c2cccc([N+](=O)[O-])c2)c1 [C033, CCc1cccc(NC(=S)NNC(=O)c2cccc(c2)[N+]([O-])=O)c1] |  |  | > 30 | 0
FC(F)(F)c1cccc(NC(=S)NCc2ccccc2C(F)(F)F)c1 [C036, FC(F)(F)c1cccc(NC(=S)NCc2ccccc2C(F)(F)F)c1] |  |  | > 30 | 0
COc1ccc(CCNC(=O)CN(c2ccc([N+](=O)[O-])cc2)S(=O)(=O)c2ccccc2)cc1 [C271, COc1ccc(cc1)CCNC(=O)CN(c2ccc(cc2)[N+](=O)[O-])S(=O)(=O)c3ccccc3] | > 50 | 0 |  | 
CN(C)C(=O)c1cccc(NC(=O)NCCc2ccccn2)c1 [C076, CN(C)C(=O)c1cccc(NC(=O)NCCc2ccccn2)c1] |  |  | > 10 | 0
O=C(NCC(C1CC1)C1CC1)N1CCC(O)(C(F)(F)F)CC1 [C166, O=C(NCC(C1CC1)C1CC1)N1CCC(O)(C(F)(F)F)CC1] | > 50 | 0 |  | 
CC(Nc1c(NCc2ccc3c(c2)OCO3)c(=O)c1=O)c1ccccc1 (stereo not drawn) [C013, CC(Nc1c(NCc2ccc3c(c2)OCO3)c(=O)c1=O)c1ccccc1] |  |  | > 50 | 0
CN(C)S(=O)(=O)c1ccc(-c2nnc(C(=O)NCc3ccccc3)o2)cc1 [C089, CN(C)S(=O)(=O)c1ccc(-c2nnc(C(=O)NCc3ccccc3)o2)cc1] |  |  | > 50 | 0

Second part, the compound after the results:

IC50 [1] [µM] | Decoy – 0 Active – 1 [2] | IC50 [3] [µM] | Decoy – 0 Active – 1 [4] | Compound
> 50 | 0 |  |  | COc1ccc(S(=O)(=O)NC(c2ccc(F)cc2)c2nccn2C)cc1 (stereo not drawn) [C267, Cn1ccnc1C(c2ccc(cc2)F)NS(=O)(=O)c3ccc(cc3)OC]
> 50 | 0 |  |  | O=C(NCc1ccccc1F)N1CCC(c2ccc3c(c2)OCO3)C(O)C1 (stereo not drawn) [C180, O=C(NCc1ccccc1F)N1CCC(c2ccc3c(c2)OCO3)C(O)C1]
 |  | > 50 | 0 | CC[C@@H](NC(=O)CCn1ccccc1=O)c1cc(F)ccc1F [C132, CC[C@@H](NC(=O)CCn1ccccc1=O)c1cc(F)ccc1F]
> 50 | 0 |  |  | COc1ccc(O)c(/C=C(\C#N)C(=O)Nc2cccc(Cl)c2Cl)c1 [C164, COc1ccc(O)c(/C=C(\C#N)C(=O)Nc2cccc(Cl)c2Cl)c1]
 |  | > 50 | 0 | CNC(=O)[C@H](NC1=NS(=O)(=O)c2ccccc21)C(C)C [C157, CNC(=O)[C@H](NC1=NS(=O)(=O)c2ccccc21)C(C)C]
 |  | > 50 | 0 | C[C@@H](CNC(=O)N[C@H]1CCO[C@@H](c2ccccc2)C1)c1ccsc1 [C108, C[C@@H](CNC(=O)N[C@H]1CCO[C@@H](c2ccccc2)C1)c1ccsc1]
 |  | > 50 | 0 | CCn1cccc(NC(=O)N2CC(Cc3ccccc3Br)C2)c1=O [C079, CCn1cccc(NC(=O)N2CC(Cc3ccccc3Br)C2)c1=O]
 |  | > 50 | 0 | O=C(N[C@@H](c1nccs1)C1CC1)c1cc(N2CCOCC2)ccn1 [C147, O=C(N[C@@H](c1nccs1)C1CC1)c1cc(N2CCOCC2)cc[nH+]1]
> 50 | 0 |  |  | O=C1CCC(C(=O)NC(c2ccc(F)cc2)C(F)(F)F)N1 (stereo not drawn) [C204, O=C1CCC(C(=O)NC(c2ccc(F)cc2)C(F)(F)F)N1]
 |  | > 50 | 0 | CCN(CC)S(=O)(=O)c1ccc2c(c1)cc(C(=O)NCc1ccc(C)o1)n2C [C102, CCN(CC)S(=O)(=O)c1ccc2c(c1)cc(C(=O)NCc1ccc(C)o1)n2C]
> 50 | 0 |  |  | CCC(NS(=O)(=O)c1ccc(C)cc1)c1ccccc1OCC(=O)NC (stereo not drawn) [C249, CCC(c1ccccc1OCC(=O)NC)NS(=O)(=O)c2ccc(cc2)C]
> 50 | 0 |  |  | O=C(CCC1(C(=O)O)CCC(=O)NC1)NCc1ccccc1 (stereo not drawn) [C216, O=C(CCC1(C(=O)[O-])CCC(=O)NC1)NCc1ccccc1]
> 50 | 0 |  |  | CC(C)Oc1ccc2ccccc2c1CNC(=O)N1CCC(C)(O)C1 (stereo not drawn) [C169, CC(C)Oc1ccc2ccccc2c1CNC(=O)N1CCC(C)(O)C1]
 |  | > 50 | 0 | O=C(NCc1ccccn1)c1cn2c(n1)C(=O)N(CC1CC1)CC2 [C095, O=C(NCc1ccccn1)c1cn2c([nH+]1)C(=O)N(CC1CC1)CC2]
 |  | > 50 | 0 | CC(C)Cc1cc(C(=O)N(Cc2ccccc2Cl)C(C)C)nc(=O)[nH]1 [C142, CC(C)Cc1cc(C(=O)N(Cc2ccccc2Cl)C(C)C)nc(=O)[nH]1]
 |  | > 50 | 0 | COCCN(Cc1cccs1)C(=O)N[C@@H](C)c1ccc(C)o1 [C141, COCCN(Cc1cccs1)C(=O)N[C@@H](C)c1ccc(C)o1]
> 50 | 0 |  |  | O=C1CC(NCc2nc3ccccc3[nH]2)CN1Cc1ccccc1C(F)(F)F (stereo not drawn) [C277, O=C1CC(NCc2nc3ccccc3[nH]2)CN1Cc1ccccc1C(F)(F)F]
 |  | > 50 | 0 | Cc1cccc(N[C@H]2CS(=O)(=O)C[C@H]2OC(=O)c2ccccc2)c1 [C121, Cc1cccc(N[C@H]2CS(=O)(=O)C[C@H]2OC(=O)c2ccccc2)c1]

From PMC8972196, “A Set of Experimentally Validated Decoys for the Human CC Chemokine Receptor 7 (CCR7) Obtained by Virtual Screening” (Frontiers in Pharmacology, 2022)
